“And” between values parts separate entries of the source, which are not always exact repeats. Identical values can stand only once. Like-named read-outs stand apart in the source and are kept apart here.
Columns and labels:
[1] = molecular target: T1, recombinant human HDAC1 (Homo sapiens, UniProt Q13547); assay: Recombinant human HDAC1 enzymatic assay (Ac-peptide-AMC, fluorescence); format: biochemical
T1 construct: purchased BPS Biosciences
Procedure: (§1) The assays were carried out by Shanghai ChemPartner Co., Ltd. (Shanghai, China). Briefly, different concentrations of compounds were incubated with recombinant human HDAC1, HDAC2, HDAC3, HDAC6, and HDAC8 (BPS Biosciences, San Diego, CA, USA) at room temperature for 15 min, which was followed by adding Ac-peptide-AMC substrates to initiate the reaction in Tris-based assay buffer. Reaction mixtures were incubated at room temperature for 60 min in the HDAC1, HDAC2, HDAC3, and HDAC6 assays, and were incubated for 240 min in the HDAC8 assay. Then a stop solution containing trypsin was added. The coupled reaction was incubated for another 90 min at 37 °C. […] IC50 values were calculated by GraphPad Prism version 4.00 Windows (GraphPad Software, San Diego, CA, USA).

[2] = molecular target: T2, recombinant human HDAC2 (Homo sapiens, UniProt Q92769); assay: Recombinant human HDAC2 enzymatic assay (Ac-peptide-AMC, fluorescence); format: biochemical
T2 construct: purchased BPS Biosciences
Procedure: as §1

[3] = molecular target: T3, recombinant human HDAC3 (Homo sapiens, UniProt O15379); assay: Recombinant human HDAC3 enzymatic assay (Ac-peptide-AMC, fluorescence); format: biochemical; conditions: 10-dose IC50 mode in duplicate, threefold serial dilution; 60 min reaction; read-out: IC50 ± SD HDAC3
T3 construct: purchased BPS Biosciences
Procedure: as §1

[4] = molecular target: T4, recombinant human HDAC8 (Homo sapiens, UniProt Q9BY41); assay: Recombinant human HDAC8 enzymatic assay (Ac-peptide-AMC, fluorescence); format: biochemical
T4 construct: purchased BPS Biosciences
T4 sequence (Q9BY41 1-377): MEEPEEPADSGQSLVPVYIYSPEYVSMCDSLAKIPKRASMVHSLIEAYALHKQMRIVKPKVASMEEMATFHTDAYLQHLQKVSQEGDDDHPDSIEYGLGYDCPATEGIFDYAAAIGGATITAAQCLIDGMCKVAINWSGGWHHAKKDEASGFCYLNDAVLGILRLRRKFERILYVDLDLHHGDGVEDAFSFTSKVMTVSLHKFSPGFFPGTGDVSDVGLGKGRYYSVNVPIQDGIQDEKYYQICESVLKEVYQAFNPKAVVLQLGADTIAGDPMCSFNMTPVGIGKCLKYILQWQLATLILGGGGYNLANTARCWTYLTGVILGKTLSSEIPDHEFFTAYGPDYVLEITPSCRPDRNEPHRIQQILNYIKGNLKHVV
Procedure: as §1

[5] = molecular target: T5, recombinant human HDAC6 (Homo sapiens, UniProt Q9UBN7); assay: Recombinant human HDAC6 enzymatic assay (Ac-peptide-AMC, fluorescence); format: biochemical; conditions: read-out: IC50 ± SD HDAC6
T5 construct: purchased BPS Biosciences
T5 sequence (Q9UBN7 1-1215): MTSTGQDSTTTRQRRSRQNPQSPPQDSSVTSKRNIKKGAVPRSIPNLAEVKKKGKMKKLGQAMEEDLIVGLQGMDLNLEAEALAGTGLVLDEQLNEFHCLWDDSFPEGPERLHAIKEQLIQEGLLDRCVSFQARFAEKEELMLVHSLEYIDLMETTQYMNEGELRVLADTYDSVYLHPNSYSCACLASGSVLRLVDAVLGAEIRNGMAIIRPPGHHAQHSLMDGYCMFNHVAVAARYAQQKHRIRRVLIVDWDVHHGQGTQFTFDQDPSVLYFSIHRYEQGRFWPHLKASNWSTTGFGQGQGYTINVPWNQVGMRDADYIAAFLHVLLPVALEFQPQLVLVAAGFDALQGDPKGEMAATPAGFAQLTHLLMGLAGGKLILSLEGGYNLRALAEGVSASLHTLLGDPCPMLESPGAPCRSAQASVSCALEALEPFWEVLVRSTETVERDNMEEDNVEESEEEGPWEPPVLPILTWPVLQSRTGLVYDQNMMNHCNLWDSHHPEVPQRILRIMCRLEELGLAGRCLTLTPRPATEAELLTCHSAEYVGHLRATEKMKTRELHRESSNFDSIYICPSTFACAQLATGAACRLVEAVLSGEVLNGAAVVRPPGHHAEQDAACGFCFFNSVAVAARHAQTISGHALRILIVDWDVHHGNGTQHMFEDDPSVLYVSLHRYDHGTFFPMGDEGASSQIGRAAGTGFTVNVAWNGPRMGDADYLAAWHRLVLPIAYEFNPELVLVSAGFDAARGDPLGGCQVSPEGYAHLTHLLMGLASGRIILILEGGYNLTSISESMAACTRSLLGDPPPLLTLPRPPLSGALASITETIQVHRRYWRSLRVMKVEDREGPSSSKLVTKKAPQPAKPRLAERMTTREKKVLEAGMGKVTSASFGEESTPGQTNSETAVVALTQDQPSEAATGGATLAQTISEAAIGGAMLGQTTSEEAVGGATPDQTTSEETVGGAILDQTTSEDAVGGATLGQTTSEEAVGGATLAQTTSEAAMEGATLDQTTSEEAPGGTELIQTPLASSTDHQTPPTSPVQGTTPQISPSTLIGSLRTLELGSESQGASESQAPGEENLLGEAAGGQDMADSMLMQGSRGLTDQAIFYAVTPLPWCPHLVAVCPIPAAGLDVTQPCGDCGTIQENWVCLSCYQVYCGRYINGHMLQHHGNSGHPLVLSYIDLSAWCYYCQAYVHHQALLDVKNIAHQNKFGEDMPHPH
Procedure: as §1

[6] = system: A549 tumor cells; assay: MTT assay, growth inhibition of A549 cells; format: cell-based; conditions: Homo sapiens, read-out: IC50 ± SD A549 growth inhibition
Procedure: (§2) Cells (600,000 cells/well) were seeded in 96-well plates and incubated for 24 h before being treated with various concentrations of compounds or solvent control. Cells were further incubated for 72 h and then treated with MTT and incubated for another 3 h. The media were then removed and 100 µL DMSO was added to each well. The absorbance at 550 nm was measured by a SpectraMAX340 microplate reader (Molecular Devices, Sunnyvale, CA, USA) with a reference wavelength at 690 nm.

[7] = system: HCT116 tumor cells; assay: MTT assay, growth inhibition of HCT116 cells; format: cell-based; conditions: seven-dose IC50 mode in duplicate, four-fold serial dilution
Procedure: as §2

[8] = system: MDA-MB-231 tumor cells; assay: MTT assay, growth inhibition of MDA-MB-231 cells; format: cell-based; conditions: Homo sapiens, read-out: IC50 ± SD MDA-MB-231 growth inhibition
Procedure: as §2

[9] = system: SK-OV-3 tumor cells; assay: MTT assay, growth inhibition of SK-OV-3 cells; format: cell-based; conditions: seven-dose IC50 mode in duplicate, four-fold serial dilution
Procedure: as §2

[10] = system: HCT116 tumor cells; conditions: reported by Leusch; read-out: IC50 HCT116 growth inhibition (data in parentheses) (converted); cited from earlier work
[11] = IC50 value ratio of HDAC 1 versus HDAC 6
[12] = 10-dose IC50 mode in duplicate, threefold serial dilution, 240 min reaction, read-out: IC50 ± SD HDAC8

T3 sequence (O15379 whole entry): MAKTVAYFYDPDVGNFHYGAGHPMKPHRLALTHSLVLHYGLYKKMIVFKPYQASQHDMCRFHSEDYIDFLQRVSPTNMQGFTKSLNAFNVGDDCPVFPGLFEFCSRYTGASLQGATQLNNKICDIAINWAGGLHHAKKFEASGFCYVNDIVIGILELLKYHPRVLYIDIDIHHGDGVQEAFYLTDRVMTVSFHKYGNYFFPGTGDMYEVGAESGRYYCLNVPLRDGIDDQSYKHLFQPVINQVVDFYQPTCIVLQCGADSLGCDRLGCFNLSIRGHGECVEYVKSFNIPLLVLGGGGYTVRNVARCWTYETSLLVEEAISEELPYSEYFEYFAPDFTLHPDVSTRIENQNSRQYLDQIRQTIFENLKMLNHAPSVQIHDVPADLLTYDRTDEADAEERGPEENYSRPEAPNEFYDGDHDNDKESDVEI
T3 sequence (Q9Y618 395-489 partner limits assumed): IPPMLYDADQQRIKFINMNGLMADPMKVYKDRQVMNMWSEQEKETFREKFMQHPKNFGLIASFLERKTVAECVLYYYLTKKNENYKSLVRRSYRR
T1 sequence (Q13547 whole entry): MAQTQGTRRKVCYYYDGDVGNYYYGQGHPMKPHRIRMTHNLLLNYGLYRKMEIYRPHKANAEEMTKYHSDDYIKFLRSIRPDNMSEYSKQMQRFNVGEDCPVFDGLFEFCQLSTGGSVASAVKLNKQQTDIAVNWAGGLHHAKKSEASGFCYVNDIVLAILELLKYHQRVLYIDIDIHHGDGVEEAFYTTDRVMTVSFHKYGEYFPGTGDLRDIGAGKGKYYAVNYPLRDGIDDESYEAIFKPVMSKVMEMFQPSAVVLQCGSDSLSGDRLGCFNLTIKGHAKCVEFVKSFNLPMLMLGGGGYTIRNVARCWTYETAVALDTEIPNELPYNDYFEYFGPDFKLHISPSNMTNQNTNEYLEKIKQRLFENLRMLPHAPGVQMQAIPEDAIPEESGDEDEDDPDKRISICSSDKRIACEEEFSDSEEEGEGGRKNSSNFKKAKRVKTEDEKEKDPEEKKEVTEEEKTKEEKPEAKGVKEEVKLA
T2 sequence (Q92769 whole entry): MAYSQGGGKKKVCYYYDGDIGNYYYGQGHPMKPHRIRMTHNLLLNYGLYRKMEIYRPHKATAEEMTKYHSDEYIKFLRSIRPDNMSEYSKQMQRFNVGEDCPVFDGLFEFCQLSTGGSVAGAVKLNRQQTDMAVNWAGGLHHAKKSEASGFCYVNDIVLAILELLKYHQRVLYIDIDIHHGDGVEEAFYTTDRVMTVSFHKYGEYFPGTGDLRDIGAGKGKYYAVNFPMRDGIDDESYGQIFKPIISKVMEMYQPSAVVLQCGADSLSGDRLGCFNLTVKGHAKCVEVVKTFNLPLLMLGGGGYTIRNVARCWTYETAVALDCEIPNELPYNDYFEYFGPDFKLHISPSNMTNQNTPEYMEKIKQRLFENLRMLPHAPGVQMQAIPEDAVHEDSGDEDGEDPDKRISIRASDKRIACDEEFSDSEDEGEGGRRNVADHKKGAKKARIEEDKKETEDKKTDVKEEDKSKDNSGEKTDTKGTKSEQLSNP

Selectivity (HDAC1/6) [1, 11] | IC50 ([1]; read-out: IC50 ± SD HDAC1) [µM] | IC50 ([2]; read-out: IC50 ± SD HDAC2) [µM] | IC50 [3] | IC50 [4, 12] [µM] | IC50 [5] [µM] | SMILES | IC50 [4] [µM] | also measured
68 | 0.0044 ± 0.0002 | 0.021 ± 0.0003 | 0.0392 µM and 0.039 µM | 0.0085 ± 0.0025 | 0.3 ± 0.005 | CC(C)[C@@H]1NC(=O)[C@]2(C)CSC(=N2)c2csc(n2)CNC(=O)C[C@@H](/C(F)=C/CCS)OC1=O [Compound 15a, (5R,8S,11S/R)-11-((Z)-1-Fluoro-4-mercaptobut-1-en-1-yl)-8-isopropyl-5-methyl-10-oxa-3,17-dithia-7,14,19,20-tetraazatricyclo[14.2.1.12,5]icosa-1(18),2(20),16(19)-triene-6,9,13-trione] | – | selectivity towards HDAC 1 over HDAC 6 [1, 11]: about 68 fold
80 | 0.0042 ± 0.0003 | 0.0162 ± 0.0004 | 0.0371 ± 0.0007 µM | 0.0176 ± 0.0041 | 0.338 ± 0.017 | C[C@@]12CSC(=N1)c1csc(n1)CNC(=O)C[C@@H](/C(F)=C/CCS)OC(=O)[C@H](Cc1ccccc1)NC2=O [Compound 15b] | – | –
– | – | – | – | – | – | CCCCCCCC(=O)SCC/C=C/[C@@H]1CC(=O)NCc2nc(cs2)C2=N[C@@](C)(CS2)C(=O)N[C@@H](C(C)C)C(=O)O1 [Largazole, reference compound] | 0.12 ± 0.058 | IC50 ([1]; 10-dose IC50 mode in duplicate, threefold serial dilution, 60 min reaction, read-out: IC50 ± SD HDAC1): 0.228 ± 0.034 µM; IC50 [2]: 1.52 ± 0.015 µM; IC50 ([6]; A549, 72 h): 0.46 ± 0.1 µM; IC50 ([7]; Homo sapiens, HCT-116, 72 h, read-out: IC50 ± SD HCT116 growth inhibition, MTT, 72 h): 0.184 µM; IC50 ([7]; read-out: IC50 ± SD HCT116 growth inhibition, MTT, 72 h): 0.18 ± 0.01 µM; IC50 ([8]; MDA-MB-231, 72 h): 1.37 ± 0.41 µM; IC50 ([9]; Homo sapiens, SK-OV-3, 72 h, read-out: IC50 ± SD SK-OV-3 growth inhibition, MTT, 72 h): 0.034 µM; IC50 ([9]; read-out: IC50 ± SD SK-OV-3 growth inhibition, MTT, 72 h): 0.03 ± 0.01 µM; IC50 [10]: 0.044 µM

SMILES | Selectivity (HDAC1/6) [1, 11] | IC50 ([1]; read-out: IC50 ± SD HDAC1) [µM] | IC50 ([2]; read-out: IC50 ± SD HDAC2) [µM] | IC50 [3] | IC50 [4, 12] [µM] | IC50 [5] [µM] | IC50 [4] [µM] | also measured
CCCCCCCC(=O)SCC/C=C(\F)[C@@H]1CC(=O)NCc2nc(cs2)C2=N[C@@](C)(CS2)C(=O)N[C@@H](C(C)C)C(=O)O1 [Compound 16a, S-((Z)-4-Fluoro-4-((5R,8S,11S/R)-8-isopropyl-5-methyl-6,9,13-trioxo-10-oxa-3,17-dithia-7,14,19,20-tetraazatricyclo[14.2.1.12,5]icosa-1(18),2(20),16(19)-trien-11-yl)but-3-en-1-yl) octanethioate] | – | – | 1.817 ± 0.017 | – | – | – | 0.255 ± 0.092 | IC50 [1]: 0.385 ± 0.045 µM; IC50 ([6]; A549, MTT, 72 h, seven-dose IC50 mode in duplicate, four-fold serial dilution): 0.52 ± 0.12 µM; IC50 ([7]; Homo sapiens, HCT-116, MTT, 72 h, read-out: IC50 ± SD HCT116 growth inhibition): 0.81 ± 0.13 µM; IC50 ([8]; MDA-MB-231, MTT, 72 h, seven-dose IC50 mode in duplicate, four-fold serial dilution): 3.85 ± 0.44 µM; IC50 ([9]; Homo sapiens, SK-OV-3, MTT, 72 h, read-out: IC50 ± SD SK-OV-3 growth inhibition): 0.25 ± 0.13 µM

— publication PMC6628159 (Marine Drugs, 2019)
